In brackets after ≈: the same amount, converted by molar mass. Each block holds one compound with its values, some of them ahead of it.
Tests used:
[1] = Apparent intrinsic clearance in human liver microsomes; assay type: ADME; conditions: read-out: CLH(app)
Gamma-secretase [2] = assay: Modulation of gamma-secretase (unknown origin) expressed in CHO cells overexpressing human wild type APP assessed as reduction of amyloid beta 42 level after 24 hrs by ELISA; assay type: cell-based
MDR1 (human) [3] = assay: Efflux ratio of permeability in MDCK cells expressing human MDR1; assay type: ADME, cell-based, Canis lupus familiaris; conditions: dog
[4] = Apparent intrinsic clearance in rat liver microsomes; assay type: ADME; conditions: read-out: CLH(app)
Cavia porcellus [5] = assay: Antialzheimer activity in Hartley guinea pig assessed as reduction in brain amyloid beta 40 level at 10 mg/kg, po measured after 4 hrs post dosing relative to control; assay type: functional; set-up: scale not given: the % may be the effect or the level left
[6] = Clearance in rat at 1 mg/kg, iv; assay type: ADME, organism-based; set-up: dose 1 mg/kg, route intravenous; conditions: in vivo
Cavia porcellus [7] = assay: Antialzheimer activity in Hartley guinea pig assessed as increase in brain amyloid beta 38 level at 90 mg/kg, po measured after 4 hrs post dosing relative to control; assay type: functional
[8] = Plasma concentration in Hartley guinea pig at 10 mg/kg, po after 4 hrs post dosing; assay type: ADME, organism-based, Cavia porcellus; set-up: dose 10 mg/kg, route oral
Cytochrome P450 2D6 = Cytochrome P450 2D6 (Homo sapiens, UniProt P10635); assay: Inhibition of CYP2D6 (unknown origin); assay type: ADME
[9] = Fraction unbound in Hartley guinea pig brain; assay type: ADME, tissue-based, Cavia porcellus
[10] = Plasma concentration in Hartley guinea pig at 30 mg/kg, po after 4 hrs post dosing; assay type: ADME, organism-based, Cavia porcellus; set-up: dose 30 mg/kg, route oral
[11] = Passive apparent permeability from apical to basolateral side in RRCK cells; assay type: ADME, cell-based, Canis lupus familiaris, MDCKII-LE; conditions: dog, MDCK
[12] = Drug uptake in Hartley guinea pig cerebrospinal fluid at 90 mg/kg, po after 4 hrs post dosing; assay type: ADME, organism-based, Cavia porcellus; set-up: dose 90 mg/kg, route oral; conditions: read-out: Drug uptake
[13] = Drug uptake in Hartley guinea pig brain at 90 mg/kg, po after 4 hrs post dosing; assay type: ADME, organism-based, Cavia porcellus; set-up: dose 90 mg/kg, route oral; conditions: read-out: Drug uptake
[14] = Half life in rat at 1 mg/kg, iv; assay type: ADME, organism-based; set-up: dose 1 mg/kg, route intravenous; conditions: in vivo
Cavia porcellus [15] = assay: Antialzheimer activity in po dosed Hartley guinea pig assessed as reduction in brain amyloid beta 42 level measured after 4 hrs post dosing; assay type: functional, organism-based
[16] = Ratio of unbound drug level in brain to plasma in rat; assay type: ADME
[17] = Fraction unbound in Hartley guinea pig plasma; assay type: ADME, cell-free, Cavia porcellus
[18] = Aqueous kinetic solubility of the compound at pH 6.5; assay type: physicochemical; conditions: read-out: Kinetic_solubility
[19] = Volume of distribution at steady state in rat at 1 mg/kg, iv; assay type: ADME, organism-based; set-up: dose 1 mg/kg, route intravenous; conditions: in vivo, read-out: Vdss
Cavia porcellus [20] = assay: Antialzheimer activity in Hartley guinea pig assessed as reduction in brain amyloid beta 42 level at 30 mg/kg, po measured after 4 hrs post dosing relative to control; assay type: functional; set-up: scale not given: the % may be the effect or the level left
[21] = Ratio of drug uptake in brain to plasma in rat at 5 mg/kg, po after 1 hr; assay type: ADME, organism-based; set-up: dose 5 mg/kg, route oral; conditions: read-out: BPR
[22] = Plasma concentration in Hartley guinea pig at 90 mg/kg, po after 4 hrs post dosing; assay type: ADME, organism-based, Cavia porcellus; set-up: dose 90 mg/kg, route oral
Cytochrome P450 3A4 = Cytochrome P450 3A4 (Homo sapiens, UniProt P08684); assay: Inhibition of CYP3A4 (unknown origin); assay type: ADME
[23] = Drug uptake in Hartley guinea pig brain at 30 mg/kg, po after 4 hrs post dosing; assay type: ADME, organism-based, Cavia porcellus; set-up: dose 30 mg/kg, route oral; conditions: read-out: Drug uptake
Cavia porcellus [24] = assay: Antialzheimer activity in Hartley guinea pig assessed as reduction in brain amyloid beta 40 level at 90 mg/kg, po measured after 4 hrs post dosing relative to control; assay type: functional; set-up: scale not given: the % may be the effect or the level left
Cavia porcellus [25] = assay: Antialzheimer activity in po dosed Hartley guinea pig assessed as reduction in brain amyloid beta 40 level measured after 4 hrs post dosing; assay type: functional, organism-based
Cavia porcellus [26] = assay: Antialzheimer activity in Hartley guinea pig assessed as increase in brain amyloid beta 38 level at 30 mg/kg, po measured after 4 hrs post dosing relative to control; assay type: functional
[27] = Drug uptake in Hartley guinea pig brain at 10 mg/kg, po after 4 hrs post dosing; assay type: ADME, organism-based, Cavia porcellus; set-up: dose 10 mg/kg, route oral; conditions: read-out: Drug uptake
Gamma-secretase [28] = assay: Modulation of gamma secretase in HEK293 NdeltaE cells assessed as inhibition of notch signalling; assay type: cell-based, Homo sapiens
Cavia porcellus [29] = assay: Antialzheimer activity in Hartley guinea pig assessed as reduction in brain amyloid beta 42 level at 10 mg/kg, po measured after 4 hrs post dosing relative to control; assay type: functional; set-up: scale not given: the % may be the effect or the level left
[30] = Lipophilicity, log D of the compound by shake flask method; assay type: physicochemical; conditions: octanol/water
Cytochrome P450 2C8 = target: T1, Cytochrome P450 2C8 (Homo sapiens, UniProt P10632); assay: Inhibition of CYP2C8 (unknown origin); assay type: ADME
T1 sequence (P10632 whole entry): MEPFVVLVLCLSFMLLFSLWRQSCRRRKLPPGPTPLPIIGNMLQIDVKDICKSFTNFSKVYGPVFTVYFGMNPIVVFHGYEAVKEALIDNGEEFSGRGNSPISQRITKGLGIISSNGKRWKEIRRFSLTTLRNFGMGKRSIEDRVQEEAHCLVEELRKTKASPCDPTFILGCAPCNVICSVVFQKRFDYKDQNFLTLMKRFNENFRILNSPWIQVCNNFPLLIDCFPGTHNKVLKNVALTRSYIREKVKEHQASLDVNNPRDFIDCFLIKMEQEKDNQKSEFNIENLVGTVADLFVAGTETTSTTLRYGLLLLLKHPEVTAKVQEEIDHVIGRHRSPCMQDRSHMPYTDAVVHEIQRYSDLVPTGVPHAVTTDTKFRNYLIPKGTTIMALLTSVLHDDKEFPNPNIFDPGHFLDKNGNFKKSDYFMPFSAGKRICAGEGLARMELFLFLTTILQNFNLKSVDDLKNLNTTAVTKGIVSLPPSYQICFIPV

Cytochrome P450 1A2 = target: T2, Cytochrome P450 1A2 (Homo sapiens, UniProt P05177); assay: Inhibition of CYP1A2 (unknown origin); assay type: ADME
T2 sequence (P05177 whole entry): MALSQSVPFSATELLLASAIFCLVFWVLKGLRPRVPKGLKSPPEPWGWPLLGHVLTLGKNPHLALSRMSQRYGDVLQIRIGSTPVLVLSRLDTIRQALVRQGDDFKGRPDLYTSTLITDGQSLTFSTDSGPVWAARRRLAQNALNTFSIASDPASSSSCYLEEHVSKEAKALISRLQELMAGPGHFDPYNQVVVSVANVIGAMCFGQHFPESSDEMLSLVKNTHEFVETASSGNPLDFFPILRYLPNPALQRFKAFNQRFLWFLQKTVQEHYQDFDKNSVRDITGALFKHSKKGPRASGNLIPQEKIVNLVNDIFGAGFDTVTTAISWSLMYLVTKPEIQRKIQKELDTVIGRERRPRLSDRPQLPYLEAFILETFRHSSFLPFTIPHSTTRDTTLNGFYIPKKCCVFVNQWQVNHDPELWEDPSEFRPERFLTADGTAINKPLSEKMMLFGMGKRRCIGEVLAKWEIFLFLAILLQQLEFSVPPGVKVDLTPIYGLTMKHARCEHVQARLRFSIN

[31] = Fraction unbound in rat brain; assay type: ADME, tissue-based
Cavia porcellus [32] = assay: Antialzheimer activity in Hartley guinea pig assessed as increase in brain amyloid beta 38 level at 10 mg/kg, po measured after 4 hrs post dosing relative to control; assay type: functional
Cavia porcellus [33] = assay: Antialzheimer activity in Hartley guinea pig assessed as reduction in brain total amyloid beta level at 90 mg/kg, po measured after 4 hrs post dosing relative to control; assay type: functional; set-up: scale not given: the % may be the effect or the level left
MDR1 (human) [34] = assay: Permeability from apical to basolateral side in MDCK cells expressing human MDR; assay type: ADME, cell-based, Canis lupus familiaris; conditions: dog, read-out: permeability
[35] = Bioavailability in rat at 1 mg/kg, iv and 5 mg/kg, po; assay type: ADME, organism-based; conditions: in vivo
Cytochrome P450 2C9 = Cytochrome P450 2C9 (Homo sapiens, UniProt P11712); assay: Inhibition of CYP2C9 (unknown origin); assay type: ADME
[36] = Fraction unbound in rat plasma; assay type: ADME, cell-free
Cavia porcellus [37] = assay: Antialzheimer activity in Hartley guinea pig assessed as reduction in brain amyloid beta 40 level at 30 mg/kg, po measured after 4 hrs post dosing relative to control; assay type: functional; set-up: scale not given: the % may be the effect or the level left
Cytochrome P450 2C19 = Cytochrome P450 2C19 (Homo sapiens, UniProt P33261); assay: Inhibition of CYP2C19 (unknown origin); assay type: ADME
Cavia porcellus [38] = assay: Antialzheimer activity in Hartley guinea pig assessed as reduction in brain total amyloid beta level at 30 mg/kg, po measured after 4 hrs post dosing relative to control; assay type: functional; set-up: scale not given: the % may be the effect or the level left
[39] = Drug uptake in rat brain at 5 mg/kg, po after 1 hr; assay type: ADME, organism-based; set-up: dose 5 mg/kg, route oral; conditions: read-out: Drug uptake
Cavia porcellus [40] = assay: Antialzheimer activity in Hartley guinea pig assessed as reduction in brain amyloid beta 42 level at 90 mg/kg, po measured after 4 hrs post dosing relative to control; assay type: functional; set-up: scale not given: the % may be the effect or the level left
[41] = Drug uptake in Hartley guinea pig cerebrospinal fluid at 30 mg/kg, po after 4 hrs post dosing; assay type: ADME, organism-based, Cavia porcellus; set-up: dose 30 mg/kg, route oral; conditions: read-out: Drug uptake
Cavia porcellus [42] = assay: Antialzheimer activity in Hartley guinea pig assessed as reduction in brain total amyloid beta level at 10 mg/kg, po measured after 4 hrs post dosing relative to control; assay type: functional; set-up: scale not given: the % may be the effect or the level left
[43] = Drug uptake in Hartley guinea pig cerebrospinal fluid at 10 mg/kg, po after 4 hrs post dosing; assay type: ADME, organism-based, Cavia porcellus; set-up: dose 10 mg/kg, route oral; conditions: read-out: Drug uptake
[44] = Plasma concentration in rat at 5 mg/kg, po after 1 hr; assay type: ADME, organism-based; set-up: dose 5 mg/kg, route oral

Cytochrome P450 2C19, sequence (P33261 whole entry): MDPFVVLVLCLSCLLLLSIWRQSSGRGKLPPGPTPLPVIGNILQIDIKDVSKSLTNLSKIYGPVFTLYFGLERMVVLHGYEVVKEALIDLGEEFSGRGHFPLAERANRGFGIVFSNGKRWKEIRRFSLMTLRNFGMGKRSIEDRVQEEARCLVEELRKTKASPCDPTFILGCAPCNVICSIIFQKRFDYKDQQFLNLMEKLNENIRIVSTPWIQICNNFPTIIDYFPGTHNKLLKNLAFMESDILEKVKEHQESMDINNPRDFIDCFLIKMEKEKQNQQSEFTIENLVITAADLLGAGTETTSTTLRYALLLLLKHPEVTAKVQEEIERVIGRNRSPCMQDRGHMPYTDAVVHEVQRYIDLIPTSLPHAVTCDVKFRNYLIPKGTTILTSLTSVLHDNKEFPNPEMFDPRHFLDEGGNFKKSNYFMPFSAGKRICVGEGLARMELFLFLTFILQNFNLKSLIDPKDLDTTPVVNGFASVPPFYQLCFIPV
Cytochrome P450 2C9, sequence (P11712 whole entry): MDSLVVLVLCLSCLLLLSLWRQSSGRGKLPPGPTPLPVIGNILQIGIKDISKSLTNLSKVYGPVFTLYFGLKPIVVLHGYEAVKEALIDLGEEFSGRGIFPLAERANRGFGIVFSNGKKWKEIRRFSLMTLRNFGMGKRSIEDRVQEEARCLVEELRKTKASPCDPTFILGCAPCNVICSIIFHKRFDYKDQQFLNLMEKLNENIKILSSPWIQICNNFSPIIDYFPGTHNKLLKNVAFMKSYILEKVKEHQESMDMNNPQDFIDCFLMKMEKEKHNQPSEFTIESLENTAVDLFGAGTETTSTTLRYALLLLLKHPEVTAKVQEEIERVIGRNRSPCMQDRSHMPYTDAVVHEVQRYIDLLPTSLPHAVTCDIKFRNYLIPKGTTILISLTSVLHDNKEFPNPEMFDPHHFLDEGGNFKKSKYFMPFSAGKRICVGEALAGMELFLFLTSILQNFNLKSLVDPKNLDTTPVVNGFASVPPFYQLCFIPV
Cytochrome P450 3A4, sequence (P08684 whole entry): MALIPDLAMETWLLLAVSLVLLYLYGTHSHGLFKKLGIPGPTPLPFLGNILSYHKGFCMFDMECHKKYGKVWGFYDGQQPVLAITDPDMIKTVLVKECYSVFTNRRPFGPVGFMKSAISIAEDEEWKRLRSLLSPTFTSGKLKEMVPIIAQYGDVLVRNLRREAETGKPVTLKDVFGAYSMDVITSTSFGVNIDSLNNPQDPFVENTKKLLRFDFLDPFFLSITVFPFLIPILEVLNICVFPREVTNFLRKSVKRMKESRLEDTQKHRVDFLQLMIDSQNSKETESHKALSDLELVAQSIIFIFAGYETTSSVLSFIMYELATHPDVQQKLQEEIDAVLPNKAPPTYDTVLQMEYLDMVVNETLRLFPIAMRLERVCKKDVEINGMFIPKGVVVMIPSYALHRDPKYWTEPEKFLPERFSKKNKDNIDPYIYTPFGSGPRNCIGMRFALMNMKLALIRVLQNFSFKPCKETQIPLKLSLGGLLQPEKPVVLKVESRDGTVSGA
Cytochrome P450 2D6, sequence (P10635 whole entry): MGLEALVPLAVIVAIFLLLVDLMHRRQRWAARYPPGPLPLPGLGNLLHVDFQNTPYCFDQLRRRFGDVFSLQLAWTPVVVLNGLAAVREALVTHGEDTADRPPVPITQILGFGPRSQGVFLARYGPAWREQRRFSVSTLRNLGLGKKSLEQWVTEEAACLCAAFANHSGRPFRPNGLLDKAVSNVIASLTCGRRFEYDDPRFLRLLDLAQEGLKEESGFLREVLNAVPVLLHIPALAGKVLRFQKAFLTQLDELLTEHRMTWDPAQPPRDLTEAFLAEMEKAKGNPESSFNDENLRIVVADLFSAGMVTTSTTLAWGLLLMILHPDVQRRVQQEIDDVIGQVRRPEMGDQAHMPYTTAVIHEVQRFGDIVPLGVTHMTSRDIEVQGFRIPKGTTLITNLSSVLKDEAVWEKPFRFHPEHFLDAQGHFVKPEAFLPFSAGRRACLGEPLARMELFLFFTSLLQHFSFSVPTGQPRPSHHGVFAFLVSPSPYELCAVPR

- CLint scaled [1]: 27.8 mL/min/kg
- IC50 (Gamma-secretase [2]): 0.66 µM
Structure (SMILES): COc1cc(C(=O)NCc2cccc(C(F)(F)F)c2)ccc1-n1cnc(C)c1

- CLint scaled [1]: 32.7 mL/min/kg
- IC50 (Gamma-secretase [2]): > 15.8 µM
- efflux ratio (MDR1 (human) [3]): 1
Structure (SMILES): COc1cc2c(=O)n(CCc3cccc(Cl)c3)ccc2cc1-n1cnc(C)c1

- CLint scaled [4]: 117 mL/min/kg
- CLint scaled [1]: < 10.4 mL/min/kg
- IC50 (Gamma-secretase [2]): 1.5 µM
- efflux ratio (MDR1 (human) [3]): 1.5
Structure (SMILES): Cc1cn(-c2ccc3n(c2=O)CCN(CCOc2ccccc2Cl)C3=O)cn1

- clearance [6]: 1.41 mL/min/kg
- concentration at 4 h [8]: 367 nM
- IC50 (Cytochrome P450 2D6): > 30 µM
- fraction unbound [9]: 0.008
- CLint scaled [4]: 47.6 mL/min/kg
- concentration at 4 h [10]: 819 nM
- Papp A→B [11]: 10.5 ×10⁻⁶ cm/s
- concentration at 4 h [12]: 239 nM
- concentration at 4 h [13]: 52400 nM
- half-life [14]: 6.88 h
- Kp uu [16]: 0.32
- CLint scaled [1]: < 8 mL/min/kg
- fraction unbound [17]: 0.07
- solubility kinetic [18]: 95.6 µM (≈ 44.6 µg/mL)
- Vd [19]: 0.69 L/kg
- Kp at 1 h [21]: 0.24
- concentration at 4 h [22]: 7300 nM
- IC50 (Cytochrome P450 3A4): > 30 µM
- concentration at 4 h [23]: 9160 nM
- concentration at 4 h [27]: 2910 nM
- IC50 (Gamma-secretase [2]): 0.101 µM
- IC50 (Gamma-secretase [28]): > 50 µM
- logD [30]: 3.32
- IC50 (Cytochrome P450 2C8): 12.3 µM
- IC50 (Cytochrome P450 1A2): > 30 µM
- fraction unbound [31]: 0.0084
- Papp A→B (MDR1 (human) [34]): 5.8 ×10⁻⁶ cm/s
- bioavailability [35]: 88%
- IC50 (Cytochrome P450 2C9): 15.4 µM
- fraction unbound [36]: 0.0063
- IC50 (Cytochrome P450 2C19): > 30 µM
- concentration at 1 h [39]: 1000 ng/mL
- concentration at 4 h [41]: 35.7 nM
- concentration at 4 h [43]: 12.7 nM
- efflux ratio (MDR1 (human) [3]): 1.8
- concentration at 1 h [44]: 4140 ng/mL
Structure (SMILES): Cc1cn(-c2ccc3n(c2=O)CCN(CCOc2ccc(Cl)cc2C(F)(F)F)C3=O)cn1
- Activity (Cavia porcellus [5]): 88%
- Activity (Cavia porcellus [7]): 131%
- Activity (Cavia porcellus [15]): Dose-dependent effect
- Activity (Cavia porcellus [20]): 56%
- Activity (Cavia porcellus [24]): 37%
- Activity (Cavia porcellus [25]): Dose-dependent effect
- Activity (Cavia porcellus [26]): 108%
- Activity (Cavia porcellus [29]): 81%
- Activity (Cavia porcellus [32]): 102%
- Activity (Cavia porcellus [33]): 82%
- Activity (Cavia porcellus [37]): 69%
- Activity (Cavia porcellus [38]): 92%
- Activity (Cavia porcellus [40]): 32%
- Activity (Cavia porcellus [42]): 100%

Reference: ChEMBL document CHEMBL3124856, “Design, synthesis, and pharmacological evaluation of a novel series of pyridopyrazine-1,6-dione γ-secretase modulators” (J Med Chem, 2014)
